# Entries after “also recorded” stand apart in the source; their conditions may differ. Read-outs that look alike come from different tables or passages of the source.
# Columns and labels:
# zebrafish [1] = format: in vivo; conditions: for rescue of behavioral phenotypes by pretreatment with the GABAAR antagonist PTX: violet light and eASR phenotypes, in words
# adult zebrafish = experiment: Behavioral responses of adult zebrafish; conditions: in words
# zebrafish [2] = experiment: Optovin-response suppression assay (pain-related); conditions: in words; relative to concentrations that caused eASRs
# Text: To determine if any of the hit compounds may be analgesic, we used optovin-induced motor activity as a potential analgesia-related assay.
# [3] = system: human GABAARs (α1β2 and α1β2γ2); format: cell-based
# Text: To determine if these compounds targeted human GABAARs, we tested them in a fluorescent imaging plate reader (FLIPR) assay on HEK293 cells transfected with α1β2 and α1β2γ2 human GABAAR subtypes. […]. […] While some of the compounds appeared to function in this assay as negative allosteric modulators (NAMs), reductions in fluorescence were likely due to toxicity-induced cell loss (Fig. 2f, Supplementary Table 5).
# We used the FLIPR system (Molecular Devices) to quantify GABA-evoked activity of human GABAARs. We chose a membrane potential dye (Molecular Devices) to measure changes in membrane potentials and stably transfected HEK293 cells that expressed α1, β2 and γ2. Since we observed an increase in GABA-evoked responses when transfected with γ2 transiently, we describe the cells as having a low level of γ-subunit expression, indicating heterogeneity of GABAAR compositions in the cell (α1β2 or α1β2γ2). To assay for direct agonists, fluorescence was subtracted pre- and post compound addition. To assay for PAMs, cells were treated with compound at 20 uM and then with 5 uM GABA.
# zebrafish [4] = experiment: Cortisol detection assay; format: in vivo; conditions: 7-day old larvae treated 1 h; in words
# Protocol: Cortisol levels were measured in zebrafish. Briefly, 15, 7-day old larvae were treated with the indicated compounds for 1 h. Larvae were anesthetized in ice-cold egg water and then snap-froze in an ethanol/dry ice bath. Larvae were then homogenized in 100 μL of water. Cortisol was extracted from the homogenate with 1 mL of ethyl acetate, the resulting supernatant was collected and the solvent allowed to evaporate. Cortisol was dissolved in 0.2% bovine serum albumin (A7030, Sigma) and frozen at −20 °C. For cortisol ELISA experiments, 96-well plates (VWR International) were treated with cortisol antibody (P01-92-94M-P, EastCoast Bio; […] in PBS) for 16 h at 4 °C, washed, and blocked with 0.1% BSA in PBS. Cortisol samples and cortisol-HRP (P91-92-91H, EastCoast Bio) were incubated at room temperature for 2 h and washed extensively with PBS containing 0.05% Tween-20 (Invitrogen). Detection of HRP was performed using tetramethylbenzidine (TMB: 22166-1, Biomol) and Tetrabutylammonium borohydride (TBABH: 230170-10 G, Sigma). Reaction was stopped using 1 M H2SO4. Absorbance was read at 450 nm in an ELISA plate reader (SpectraMax MS, Molecular Devices).
# zebrafish [5] = format: in vivo
# Protocol: (§1) Behavioral assays for pERK. Animals were treated with DMSO or drug for one hour then exposed to a low-volume acoustic stimulus every 10 seconds for 10 minutes. Optovin-treated animals were stimulated with violet light for one second every 10 seconds for 10 minutes. Videos were recorded to measure response to the stimulus and quantified by motion index (MI). […]
# zebrafish [6] = experiment: Viability of anesthetic treated animals; format: in vivo; conditions: for toxicity at the concentrations that caused eASRs: zebrafish, in vivo; for alive/total 10 min: 10 minutes post treatment; for alive/total 1 hour: 1 hour post treatment; for alive/total 5 hours: 5 hours post treatment
# Protocol: as §1, with “(MI). Animals were immediately” for “(MI).”
# High speed imaging. Digital video was recorded at 500-1000 frames per second using an Integrated Design Tools NX5-S1 digital camera. Assay duration was 500-1000 ms. Low amplitude tap stimuli was delivered as described above. Videos and still images were assembled using Fiji (imageJ) and […]
# RNAscope. Zebrafish (6 dpf) were fixed using 10% normal buffered formaldehyde overnight at 4 °C, dehydrated in 100% methanol and stored at -20 °C until the assay was performed. Fluorescent in situ hybridization was performed using the RNAScope kit (Advanced Cell Diagnostics)4 with the following modifications: target retrieval was performed using 150 mM Tris pH 9.5 for 15 minutes at 70 °C, washes were performed using 0.2x SSCT (0.01% Tween-20, […], 0.3mM TriNa-citrate, pH7), samples were stored overnight after probe hybridization and 2x 5 minute washes in 5x SSC ([…], pH7) at room temperature before amplification and detection steps were performed the following day.
# Viability. Animals were scored manually to determine viability after anesthetic treatments. 100 animals were scored per condition at 10 minutes, 1 hour and 5 hours post treatment. Strong heart rate was observed under a dissecting scope (Leica M-80) for our viability score. […]
# rdkit function FingerprintMols package written for python. Tanimoto similarity function was used with a […]
# [7] = molecular target: benzodiazepine receptor (BZP); experiment: In vitro receptor binding (NIMH PDSP); conditions: in words; binding counted at Ki < 10 μM
# Text: (§2) A second approach to target identification was to test the binding affinity of hit compounds against a panel of 43 human and rodent neurotransmitter-related targets. […]. Several hit compounds bound to multiple targets, including compound 7145248, which bound to TSPO, the benzodiazepine receptor (BZP), dopamine transporter, and the alpha 2b receptor (Fig. 3d). The most common targets (binding > 5 compounds) included BZP, sigma 2, HTR2A/B/C, HTR6, and TSPO (Fig. 3c, d). TSPO, previously known as the peripheral benzodiazepine receptor (PBR) (because it was originally identified as a binding site for benzodiazepine anxiolytic drugs), is a mitochondrial protein that supplies cholesterol to steroid-producing enzymes in the brain[36]. TSPO ligands are thought to enhance GABAergic signaling by increasing neurosteroid production. However, some TSPO ligands, including benzodiazepines and zolpidem, also bind to GABAARs directly. […] Of the 14 compounds that bound to TSPO in vitro, 5 compounds potentiated GABAAR in FLIPR assays (Fig. 3c; 2f, green arrowheads).
# (§3) In vitro binding assays and Ki data were generated by the National Institute of Mental Health’s Psychoactive Drug Screening Program (PDSP), contract no. HHSN-271-2008-00025-C (NIMH PDSP), for assay details: http://pdsp.med.unc.edu/PDSP%20Protocols%20II%202013-03-28.pdf. Normalized Ki (npKi) values were generated as follows: npKi = 4 + (−log10 (Ki))[64].
# alpha 2b receptor = molecular target: T1, alpha 2b receptor (Homo sapiens, UniProt P18089); experiment: In vitro receptor binding (NIMH PDSP); conditions: in words; binding counted at Ki < 10 μM
# T1 sequence (P18089 1-450): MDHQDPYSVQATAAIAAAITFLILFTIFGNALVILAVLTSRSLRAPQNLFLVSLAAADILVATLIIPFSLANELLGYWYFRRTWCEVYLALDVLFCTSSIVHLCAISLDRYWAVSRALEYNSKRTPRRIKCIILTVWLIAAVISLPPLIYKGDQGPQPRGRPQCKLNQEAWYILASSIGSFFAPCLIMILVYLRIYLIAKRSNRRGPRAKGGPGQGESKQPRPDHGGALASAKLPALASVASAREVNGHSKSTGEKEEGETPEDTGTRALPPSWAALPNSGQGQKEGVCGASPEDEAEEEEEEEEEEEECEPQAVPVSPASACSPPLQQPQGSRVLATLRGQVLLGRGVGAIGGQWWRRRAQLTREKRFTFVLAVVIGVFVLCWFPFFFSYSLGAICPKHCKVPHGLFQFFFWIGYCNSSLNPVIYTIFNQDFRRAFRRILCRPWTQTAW
# Text: as §2, §3
# dopamine transporter = dopamine transporter (Homo sapiens, UniProt Q01959); experiment: In vitro receptor binding (NIMH PDSP)
# Text: as §2, §3
# TSPO = TSPO (Rattus norvegicus, UniProt P16257); experiment: In vitro receptor binding (NIMH PDSP)
# Text: as §2, §3
# [8] = compound at 20 uM then 5 uM GABA, Positive/Negative
# [9] = compound at 20 uM then 5 uM GABA, DMSO = 1
# [10] = larvae, low-volume acoustic stimulus
# Chain of dopamine transporter (Q01959 whole entry): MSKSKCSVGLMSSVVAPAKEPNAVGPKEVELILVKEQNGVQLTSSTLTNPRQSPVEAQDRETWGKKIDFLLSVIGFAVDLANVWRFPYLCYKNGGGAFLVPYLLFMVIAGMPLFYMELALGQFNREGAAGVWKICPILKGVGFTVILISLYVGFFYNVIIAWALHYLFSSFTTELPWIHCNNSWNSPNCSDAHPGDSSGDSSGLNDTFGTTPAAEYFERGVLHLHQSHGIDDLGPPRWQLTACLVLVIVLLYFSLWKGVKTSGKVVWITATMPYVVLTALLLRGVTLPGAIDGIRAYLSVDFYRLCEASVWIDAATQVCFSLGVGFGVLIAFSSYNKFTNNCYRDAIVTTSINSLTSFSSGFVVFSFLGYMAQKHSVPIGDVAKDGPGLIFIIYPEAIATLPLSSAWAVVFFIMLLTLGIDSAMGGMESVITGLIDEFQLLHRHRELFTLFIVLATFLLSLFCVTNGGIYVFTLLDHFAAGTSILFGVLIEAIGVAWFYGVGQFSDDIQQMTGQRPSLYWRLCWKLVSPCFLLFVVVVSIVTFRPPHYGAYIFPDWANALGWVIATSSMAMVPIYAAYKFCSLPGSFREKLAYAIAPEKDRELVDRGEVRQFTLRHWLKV
# Chain of TSPO (P16257 whole entry): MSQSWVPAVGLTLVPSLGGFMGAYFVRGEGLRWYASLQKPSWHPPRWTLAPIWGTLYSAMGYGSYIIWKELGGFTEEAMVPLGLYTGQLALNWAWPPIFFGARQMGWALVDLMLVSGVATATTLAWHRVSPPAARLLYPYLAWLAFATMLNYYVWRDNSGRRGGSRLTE
compound,measurement,setting,value
CCc1cc2c(=O)c(-c3ccccc3Cl)c(C)oc2cc1OC [compound 7013338],phenocopy,"zebrafish [1]; […], positive/negative",positive
same,rescue of behavioral phenotypes by pretreatment with the GABAAR antagonist PTX,zebrafish [1],partially rescued
same,violet light response and acoustic startle in adult animals,adult zebrafish,"reducing the violet light response, while increasing acoustic startle"
same,optovin response (optovin-induced motor activity),zebrafish [2],did not suppress the optovin response
same,FLIPR Results,[3]; [8],Positive
same,"GABAAR PAM activity in FLIPR, in words",[3]; in the presence of GABA,potentiated GABAARs significantly greater than positive controls; also recorded: significantly greater than the positive controls; also recorded: the most effective hit compound in the FLIPR assays; also recorded: activated human GABAARs more than any other hit compound
CCOC(=O)c1c(C)nc(-c2ccccc2)nc1NC(=O)Cc1ccccc1 [compound 5951201],cortisol levels,zebrafish [4],None of these compounds reduced cortisol levels
CCOC(=O)c1cncn1[C@H](C)c1ccccc1 [etomidate],eASRs at higher concentration,zebrafish [1]; 50 µM compared to 6 µM,suppressed eASRs
same,Average phenoscore of etomidate-treated positive controls,"zebrafish [1]; etomidate 6.5 uM, versus DMSO 0.2",0.71
same,percent animals responding (startle frequency),"zebrafish [1]; etomidate 6.25 µΜ, dampened solenoid stimulus, 100 animals, controls 2%",85%
same,rescue of behavioral phenotypes by pretreatment with the GABAAR antagonist PTX,zebrafish [1],rescued
same,cortisol levels,zebrafish [4],lowered cortisol levels
same,pERK labeling (neuronal activity),zebrafish [5]; in words,broadly reduced
same,pERK labeling in the caudal hindbrain at higher concentration,"zebrafish [5]; zebrafish, in vivo",decreased pERK labeling in the caudal hindbrain
same,violet light response and acoustic startle in adult animals,adult zebrafish,"reducing the violet light response, while increasing acoustic startle"
same,toxicity at the concentrations that caused eASRs,zebrafish [6],Neither etomidate or propofol was toxic
same,optovin response (optovin-induced motor activity),zebrafish [2],suppressed the optovin response
same,Ave Norm FLIPR Score,[3]; [9],50.67
same,FLIPR Results,[3]; [8],Positive
same,"GABAAR PAM activity in FLIPR, in words",[3]; in the presence of GABA,increased fluorescence in the presence of GABA
Cc1cc(/C=C2/SC(=S)NC2=O)c(C)n1-c1cccnc1 [optovin],pERK labeling (neuronal activity),zebrafish [5]; in words,neuronal activity increased in many brain regions including the telencephalon and optic tectum but not in the hindbrain
O=S(=O)(Nc1cccc(Br)c1)c1ccc2c(c1)OCCO2 [compound 6225936],cortisol levels,zebrafish [4],None of these compounds reduced cortisol levels
same,optovin response (optovin-induced motor activity),zebrafish [2],only reduced the optovin response at concentrations that also reduced eASRs
same,Ave Norm FLIPR Score,[3]; [9],-14.7
CCOC(=O)c1cccn1[C@H](C)c1ccccc1 [carboetomidate],phenoscore category,zebrafish [1]; average phenoscore at highest scoring treatment,intermediate (intermediate phenoscores (0.51 < x < 0.71))
same,"enhanced acoustic startle response (eASR) phenotype, in words",zebrafish [1]; [10],immobilized zebrafish and caused eASRs
same,cortisol levels,zebrafish [4],did not
CC(C)c1cccc(C(C)C)c1O [propofol],"enhanced acoustic startle response (eASR) phenotype, in words","zebrafish [1]; zebrafish, in vivo",caused enhanced acoustic startle responses
same,pERK labeling (neuronal activity),"zebrafish [5]; zebrafish, in vivo",broadly reduced
same,alive/total 10 min,zebrafish [6]; 3 µM,100/100
same,alive/total 1 hour,zebrafish [6]; 3 µM,100/100
same,alive/total 5 hours,zebrafish [6]; 3 µM,100/100
same,alive/total 10 min,zebrafish [6]; 6 µM,100/100
same,alive/total 1 hour,zebrafish [6]; 6 µM,100/100
same,alive/total 5 hours,zebrafish [6]; 6 µM,100/100
same,alive/total 10 min,zebrafish [6]; 12 µM,100/100
same,alive/total 1 hour,zebrafish [6]; 12 µM,100/100
same,alive/total 5 hours,zebrafish [6]; 12 µM,99/100
same,toxicity at the concentrations that caused eASRs,zebrafish [6],Neither etomidate or propofol was toxic
same,Ave Norm FLIPR Score,[3],34.52
same,FLIPR Results,[3],Positive
same,"GABAAR PAM activity in FLIPR, in words",[3],increased fluorescence in the presence of GABA
O=C(NCc1cccc(Oc2ccccc2)c1)C(=O)c1c[nH]c2ccccc12 [compound 7145248],binding,[7],bound
same,binding,alpha 2b receptor,bound
same,binding,dopamine transporter,bound
same,binding,TSPO,bound
same,Ave Norm FLIPR Score,[3]; [9],-24.79
COc1ccc2[nH]c(-c3ccccc3)c(CCN(C)C)c2c1 [BGC 20-761],"enhanced acoustic startle response (eASR) phenotype, in words",zebrafish [1]; [10],reproducibly caused eASRs in vivo
same,rescue of behavioral phenotypes by pretreatment with the GABAAR antagonist PTX,zebrafish [1],partially rescued
same,Phenoscore,"zebrafish [1]; zebrafish, in vivo",0.74
same,pERK labeling (neuronal activity),zebrafish [5]; in words,reduced neuronal activity throughout most of the brain and increased activity in the caudal hindbrain neuron cluster
same,optovin response (optovin-induced motor activity),zebrafish [2],blocked the optovin response
same,Ave Norm FLIPR Score,[3]; [9],1.189
same,"GABAAR PAM activity in FLIPR, in words",[3]; in the presence of GABA,PAM activity was not observed
COc1ccc(OC)c(NS(=O)(=O)c2ccc(OC)c(Br)c2)c1 [compound 6029941],rescue of behavioral phenotypes by pretreatment with the GABAAR antagonist PTX,zebrafish [1],partially rescued
same,cortisol levels,zebrafish [4],None of these compounds reduced cortisol levels
same,Ave Norm FLIPR Score,[3]; [9],14.01
same,FLIPR Results,[3]; [8],Positive
picrotoxin,Phenoscore,"zebrafish [1]; zebrafish, in vivo",0.03
same,pERK labeling (neuronal activity),zebrafish [5]; in words,neuronal activity increased in the telencephalon but not in the hindbrain
same,Ave Norm FLIPR Score,[3]; [9],-9.76
same,"GABAAR PAM activity in FLIPR, in words",[3]; in the presence of GABA,PAM activity was not observed
